Here are results for one molecule from patent US20230285457A1, “NANOPARTICLES FOR CANCER TREATMENT” (Universidad de Guadalajara, priority 2019, published 2023).

A short description of this data set: Quantification of the DOX encapsulation percentage in the nanoparticle. Format: physicochemical. The following applies: DOX with respect to the mass of PLGA in the nanoparticles; mean ± DE, n = 3. The method, then:
To evaluate the DOX release profile contained in anti-GZMB PLGA/DOX/Ch/ICG NPs, firstly, the quantification of the encapsulation percentage in the nanoparticle was performed by dissolving the PLGA NPs pellet in acetone, quantifying the fluorescence intensity and interpolating fluorescence intensity against DOX standard; this assay was performed in fluorescence plates of 96-well Clear Bottom (Corning®—CLS3904) using excitation and emission at 488 and 560 nm, respectively.

In the case of `COc1cccc2c1C(=O)c1c(O)c3c(c(O)c1C2=O)C[C@@](O)(C(=O)CO)C[C@@H]3O[C@H]1C[C@H](N)[C@H](O)[C@H](C)O1` [DOX, doxorubicin], the “Encapsulation percentage (w/w)” value was 7.32 ± 1.4 percentage (w/w).
